The subject of one data set is Sprague Dawley rats. The data set is described as follows: Clinical observations following subcutaneous injection (Example 12). It counts as in vivo, Sprague Dawley rat. Conditions: 0.1 and 0.3 mg/kg SC; some animals; approximately 4 hours postdosing. As for the experimental part: Clinical observations were performed at approximately 6 hours prior to dosing, at the completion of dosing and at approximately 4 hours postdosing.

The target in a further data set is T1, EP2 receptor (Homo sapiens, UniProt P43116).
T1 construct: expressed in transfected cells
T1 sequence (P43116 whole entry): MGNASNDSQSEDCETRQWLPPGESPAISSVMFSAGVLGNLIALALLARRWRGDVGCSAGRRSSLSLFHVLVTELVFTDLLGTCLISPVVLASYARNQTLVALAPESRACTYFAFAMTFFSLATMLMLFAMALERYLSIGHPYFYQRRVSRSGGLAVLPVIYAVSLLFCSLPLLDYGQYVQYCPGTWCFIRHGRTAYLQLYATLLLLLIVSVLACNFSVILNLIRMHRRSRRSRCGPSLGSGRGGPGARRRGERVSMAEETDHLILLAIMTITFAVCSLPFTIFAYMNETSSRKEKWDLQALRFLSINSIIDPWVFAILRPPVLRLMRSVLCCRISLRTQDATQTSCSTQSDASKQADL
The experiment in a line: cAMP assay (HTRF cAMP HiRange Kit), agonist mode, Example 4. Conditions: Table 2; HEK293T cells; read-out: Receptor activity EC50, EP receptor. It counts as cell-based. The procedure: Materials. […] Cyclic AMP assay kit: HTRF cAMP HiRange Kit (CisBio, Cat #62AM6PEC). Cyclic AMP (cAMP) Assay: cAMP assays were performed according to the manufacturer's protocol using CisBio's HTRF cAMP HiRange Kit. […] The reaction was terminated by sequentially adding D2-labeled cAMP and cryptate-labeled anti-cAMP antibody in lysis buffer. […] Data in graphs are represented in Mean±SD. Dose-dependent responses were fitted with sigmoidal dose-response curves allowing variable slopes using GraphPad Prism versions 4, 5 or 6 (Graphpad Prism).
On the technique in general: Cyclic AMP is a second messenger, typically raised through Gs and lowered through Gi signalling.

Usually EC50 stands for the concentration giving half of the maximal effect.

With `CCCCC[C@H](O)CC[C@@H]1[C@H]2Cc3cccc(OCC(=O)O)c3C[C@H]2C[C@H]1O` [Treprostinil], the clinical observations result with Sprague Dawley rats is given as “flushed extremities”. Besides, at EP2 receptor, the EC50 was 6.75 nM.

These data come from patent US11672775B2, “Treprostinil prodrugs” (United Therapeutics Corporation, priority 2016, dated 2023).
